Laboratory results reported in publication PMC10066365, “Nemacol is a small molecule inhibitor of C. elegans vesicular acetylcholine transporter with anthelmintic potential” (Nature Communications, 2023).
“And” between values parts separate entries of the source, which are not always exact repeats. Equal values may be shown once. Read-outs that look alike come from different tables or passages of the source.

Experiments:
[1] = test system: C. elegans; experiment: C. elegans motor phenotype scoring on solid media (Punc/jerky-unc, coiled, paralyzed), wild-type young adults; type: in vivo, Caenorhabditis elegans; details: for atypical locomotion (number of animals) / coiled (number of animals) / no phene (number of animals) / paralyzed (number of animals): young adults, 20 animals per trial, single technical replicate; for EC50: Caenorhabditis elegans, any motor phenotype after 1 h on solid media, ± 95% CI, read-out: C. elegans - motor disruption EC50
[2] = target: T1, rat VAChT (Rattus norvegicus, UniProt Q62666); experiment: [3H]Vesamicol competitive radioligand binding, PC12 cells expressing ratVAChT
T1 construct: expressed in transfected cells; host or cells: rat PC12 (PC12 A123.7) cells, stably transfected; shared by Dr. Ali Roghani (Texas Tech University)
T1 sequence (Q62666 1-530): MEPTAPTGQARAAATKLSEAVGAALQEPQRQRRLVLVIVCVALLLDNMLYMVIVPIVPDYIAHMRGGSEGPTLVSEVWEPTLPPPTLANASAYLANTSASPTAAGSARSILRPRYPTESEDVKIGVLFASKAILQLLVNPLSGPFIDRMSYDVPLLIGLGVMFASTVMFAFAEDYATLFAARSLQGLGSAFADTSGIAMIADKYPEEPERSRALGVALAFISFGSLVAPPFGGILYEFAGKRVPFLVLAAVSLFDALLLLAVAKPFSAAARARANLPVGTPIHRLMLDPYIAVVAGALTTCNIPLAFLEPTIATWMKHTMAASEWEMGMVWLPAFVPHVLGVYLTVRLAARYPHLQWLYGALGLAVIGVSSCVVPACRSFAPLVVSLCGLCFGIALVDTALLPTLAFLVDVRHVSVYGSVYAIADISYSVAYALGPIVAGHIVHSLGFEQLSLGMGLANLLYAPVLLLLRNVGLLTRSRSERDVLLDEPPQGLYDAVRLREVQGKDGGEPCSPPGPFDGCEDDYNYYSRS

[3] = test system: Dirofilaria immitis microfilariae; experiment: Dirofilaria immitis microfilariae immobility assay (DiroImager, 72 h); details: Dirofilaria immitis microfilariae
Procedure, shortened: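 Motility read after 72 h drug exposure with an image-based high-throughput plate imager, 1% DMSO medium serving as negative control. Missouri-isolate microfilariae, roughly 250 per well, freshly purified and cultured in supplemented RPMI 1640.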

[4] = test system: Dirofilaria immitis L3/L4; experiment: Dirofilaria immitis L3/L4 motility assay (DiroImager, 72 h); details: Dirofilaria immitis L4
[5] = test system: Pristionchus pacificus; experiment: Pristionchus pacificus motor disruption dose-response on solid media, 1 h; details: for EC50: Pristionchus pacificus, 1 h, read-out: P. pacificus motor disruption EC50; for mean % any phene: any phenotype (coiled, jerky-Unc or paralyzed) at one hour; for mean % any phene / mean % any phene (coiled, jerky-Unc or paralyzed): mean of three biological replicates; for rep 1 atypical locomotion / rep 1 coiled / rep 1 no phene / rep 1 paralyzed / rep 2 atypical locomotion / rep 2 coiled / rep 2 no phene / rep 2 paralyzed / rep 3 atypical locomotion / rep 3 coiled / rep 3 no phene / rep 3 paralyzed: count of 20 animals per trial, one hour; for mean % any phene (coiled, jerky-Unc or paralyzed): Pristionchus pacificus young adults
[6] = [3H]Vesamicol binding, PC12, experiment 1, read-out: expt 1 Ki (M) vs. rat VAChT (PC12)
[7] = [3H]Vesamicol binding, PC12, experiment 2, read-out: expt 2 Ki (M) vs. rat VAChT (PC12)
[8] = [3H]Vesamicol binding, rat VAChT (PC12), mean of 2-3 experiments, read-out: mean Ki

Structure (SMILES): c1ccc(N2CCN(C3CCCCCC3)CC2)cc1 [Nemacol-59]
- atypical locomotion (number of animals) ([1]; 3.75uM, one hour): 5 and 4 and 7 and 2
- coiled (number of animals) ([1]; 3.75uM, one hour): 0
- no phene (number of animals) ([1]; 3.75uM, one hour): 15 and 16 and 13
- paralyzed (number of animals) ([1]; 3.75uM, one hour): 0 and 2
- any phene: mean % fraction of young adults exhibiting any phenotype (coiled, jerky-Unc or paralyzed) ([1]; 3.75uM, one hour, mean of three biological replicates): 24.1667%
- atypical locomotion (number of animals) ([1]; 15uM, one hour): 15 and 17 and 14 and 16 and 18
- coiled (number of animals) ([1]; 15uM, one hour): 0 and 1 and 3 and 2
- no phene (number of animals) ([1]; 15uM, one hour): 0 and 2
- paralyzed (number of animals) ([1]; 15uM, one hour): 5 and 3 and 0
- any phene: mean % fraction of young adults exhibiting any phenotype (coiled, jerky-Unc or paralyzed) ([1]; 15uM, one hour, mean of three biological replicates): 98.3333%
- atypical locomotion (number of animals) ([1]; 60uM, one hour): 1 and 4 and 8 and 5 and 3
- coiled (number of animals) ([1]; 60uM, one hour): 12 and 6 and 4 and 7
- no phene (number of animals) ([1]; 60uM, one hour): 0
- paralyzed (number of animals) ([1]; 60uM, one hour): 7 and 10 and 8 and 9 and 11
- EC50 [1]: 5.1 ± 0.5 µM
- Ki [2, 6]: 1.85e-06 M
- Ki [2, 7]: 1.68e-06 M
- Ki [2, 8]: 1.76e-06 M
- Ki ([2]; [3H]Vesamicol displacement, mean, read-out: ratVAChT Ki): 1.76e-06 M
- % effect (motility), DIROIM MF ([3]; 0.016 µM): 0%
- % effect (motility), DIROIM MF ([3]; 0.08 µM): 0%
- % effect (motility), DIROIM MF ([3]; 0.4 µM): 0%
- % effect (motility), DIROIM MF ([3]; 2 µM): 0%
- % effect (motility), DIROIM MF ([3]; 10 µM): 0%
- % effect (motility), DIROIM L4 ([4]; 10 µM): 30%
- % effect (motility), DIROIM L4 ([4]; 50 µM): 25%
- EC50 [5]: > 60 µM
- mean % any phene ([5]; conc 3.75): 0%
- rep 1 atypical locomotion ([5]; conc 3.75): 0
- rep 1 coiled ([5]; conc 3.75): 0
- rep 1 no phene ([5]; conc 3.75): 20
- rep 1 paralyzed ([5]; conc 3.75): 0
- rep 2 atypical locomotion ([5]; conc 3.75): 0
- rep 2 coiled ([5]; conc 3.75): 0
- rep 2 no phene ([5]; conc 3.75): 20
- rep 2 paralyzed ([5]; conc 3.75): 0
- rep 3 atypical locomotion ([5]; conc 3.75): 0
- rep 3 coiled ([5]; conc 3.75): 0
- rep 3 no phene ([5]; conc 3.75): 20
- rep 3 paralyzed ([5]; conc 3.75): 0
- mean % any phene ([5]; conc 15): 0%
- rep 1 atypical locomotion ([5]; conc 15): 0
- rep 1 coiled ([5]; conc 15): 0
- rep 1 no phene ([5]; conc 15): 20
- rep 1 paralyzed ([5]; conc 15): 0
- rep 2 atypical locomotion ([5]; conc 15): 0
- rep 2 coiled ([5]; conc 15): 0
- rep 2 no phene ([5]; conc 15): 20
- rep 2 paralyzed ([5]; conc 15): 0
- rep 3 atypical locomotion ([5]; conc 15): 0
- rep 3 coiled ([5]; conc 15): 0
- rep 3 no phene ([5]; conc 15): 20
- rep 3 paralyzed ([5]; conc 15): 0
- mean % any phene ([5]; conc 60): 5.833%
- rep 1 atypical locomotion ([5]; conc 60): 4 and 2
- rep 1 coiled ([5]; conc 60): 0
- rep 1 no phene ([5]; conc 60): 16 and 18
- rep 1 paralyzed ([5]; conc 60): 0
- rep 2 atypical locomotion ([5]; conc 60): 0
- rep 2 no phene ([5]; conc 60): 19 and 20
- rep 2 paralyzed ([5]; conc 60): 0
- rep 3 atypical locomotion ([5]; conc 60): 0
- rep 3 coiled ([5]; conc 60): 0
- rep 3 no phene ([5]; conc 60): 20
- rep 3 paralyzed ([5]; conc 60): 0

Structure (SMILES): Clc1ccc(N2CCN(CC3CC4C=CC3C4)CC2)cc1 (stereo not shown) [Nemacol-46]
- any phene (mean % fraction of young adults exhibiting any phenotype: coiled, jerky-Unc or paralyzed) ([1]; 3.75uM, one hour, mean of three biological replicates, third c14 line of each analog): 89.1667%
- EC50 [1]: 2.3 µM
- Ki [2, 6]: 9.16e-08 M
- Ki [2, 7]: 7.54e-08 M
- Ki [2, 8]: 8.35e-08 M
- % effect (motility), DIROIM MF ([3]; 0.016 µM): 0%
- % effect (motility), DIROIM MF ([3]; 0.08 µM): 0%
- % effect (motility), DIROIM MF ([3]; 0.4 µM): 0%
- % effect (motility), DIROIM MF ([3]; 2 µM): 0%
- % effect (motility), DIROIM MF ([3]; 10 µM): 0%
- % effect (motility), DIROIM L4 ([4]; 2 µM): 0%
- % effect (motility), DIROIM L4 ([4]; 10 µM): 5%
- % effect (motility), DIROIM L4 ([4]; 50 µM): 25%
- mean % any phene (coiled, jerky-Unc or paralyzed) ([5]; conc 3.75, observed at one hour): 41.6667%
- mean % any phene (coiled, jerky-Unc or paralyzed) ([5]; conc 15, observed at one hour): 58.3333%
- mean % any phene (coiled, jerky-Unc or paralyzed) ([5]; conc 60, observed at one hour): 84.1667%
- EC50 [5]: 7 ± 2.4 µM
- rep 1 atypical locomotion ([5]; conc 3.75): 0
- rep 1 coiled ([5]; conc 3.75): 0
- rep 1 no phene ([5]; conc 3.75): 20
- rep 1 paralyzed ([5]; conc 3.75): 0
- rep 2 atypical locomotion ([5]; conc 3.75): 4
- rep 2 coiled ([5]; conc 3.75): 0
- rep 2 no phene ([5]; conc 3.75): 16
- rep 2 paralyzed ([5]; conc 3.75): 0
- rep 1 atypical locomotion ([5]; conc 15): 11
- rep 1 coiled ([5]; conc 15): 4
- rep 1 no phene ([5]; conc 15): 4
- rep 1 paralyzed ([5]; conc 15): 1
- rep 2 atypical locomotion ([5]; conc 15): 0
- rep 2 coiled ([5]; conc 15): 8
- rep 2 no phene ([5]; conc 15): 0
- rep 2 paralyzed ([5]; conc 15): 12
- rep 1 atypical locomotion ([5]; conc 60): 4
- rep 1 coiled ([5]; conc 60): 6
- rep 1 no phene ([5]; conc 60): 0
- rep 1 paralyzed ([5]; conc 60): 10
- rep 2 atypical locomotion ([5]; conc 60): 0
- rep 2 coiled ([5]; conc 60): 8
- rep 2 no phene ([5]; conc 60): 0
- rep 2 paralyzed ([5]; conc 60): 12
